Assay [1] relates to human CD8 T cells from umbilical cord blood. As to the kind of experiment: Human cord blood PBMC culture with anti-CD3/CD28 beads, CD62L in CD8 T cells by flow cytometry. As to conditions: 25 μM; day 11; 3 different donors; versus DMSO. Format: cell-based. How it is done:
To most closely mimic the experimental conditions that were successful by using naïve mouse OT1 CD8 T cells, it was tested whether the MPCi on the most naïve human CD8+ T cells can be obtained, i.e. from umbilical cord blood (FIG. 1E).
(§1) Peripheral blood mononuclear cells were isolated from fresh umbilical vein cord blood on a Percoll gradient. PBMCs were then cultured in RPMI supplemented with 10% human serum. 10^4 PBMC's were seeded per well in a round bottom 96-well plate and activated with anti-CD3/CD28 beads at a 1:2 cell:bead ratio and 300 U/ml rhIL-2, in the presence of 25 μM UK5099 or DMSO. Cells were regularly split and CD62L expression was determined by flow cytometry on day 11.

In assay [2] the test system is B16-OVA tumor. As to the kind of experiment: B16-OVA melanoma tumor model, adoptive cell transfer of pre-treated OT1 cells. The assay is classed as in vivo, mouse. How it is done: To assess the functional capacity of the generated memory T cells, the MPCi-treated cells were further tested in a mouse model of melanoma. Briefly, 10^5 ovalbumin-expressing B16 melanoma cells were injected subcutaneously in 6-week-old mice. At day 6 post-engraftment, when a palpable tumor was present, mice were irradiated with 5Gy. The next day 10^5 MPCi- or DMSO-treated OT1 cells were intravenously injected, followed by a subcutaneous vaccination of 50 μg CpG and 10 μg SIINFEKL (FIG. 2A). […] Confirming the Listeria data, the proportion of central memory CD8+ T cells in the spleen was increased upon MPCi treatment (FIG. 2C).
Activated CD45.1+OT-1 splenocytes were culture in vitro for 7 days as described above, collected and purified on a Ficoll gradient, allowing to separate dead and live splenocytes. Live splenocytes were counted with Trypan blue stain 0.4%. 100′000 live splenocytes were transferred into CD45.2+ host mice by tail vein injection.
B16-OVA cells were cultured in DMEM (GIBCO) with 10% FBS and 1% P/S before their subcutaneous injection into the mouse flank. Each mouse received 100′000 cells in a volume of 200 μl of PBS. 6 days after B16-OVA cells injection, tumors were measured, mice were randomized and lymphodepleted by irradiation (5 Gray). 7 days after B16-Ova injection, mice were adoptively transferred with the ACT protocol described previously. Following the ACT, mice received a vaccination of CpG (50 μg/mouse) and N4 Ova peptide (10 μg/mouse) diluted in PBS to obtain a total volume of 100 μl/mouse, injected subcutaneously at the tail base. Tumors were measured every 2 days and the tumor volume was calculated according to the formula: V=π×[d2×D]/6, where d is the minor tumor axis and D is the major tumor axis. At day 26 days post-tumor engraftment, tumors and spleens were dissected were then stained for flow cytometry analyses.
Antibody panel for intra-tumoral T cells and splenocytic T cells was: CD8-PE-texas-Red, CD45.1-Pacific blue, CD45.2-FITC, CD62L-PE-Cy7, CD44-APC-Cy7, PD1-APC, Lag3-PE, and CD127-FITC.
Antibody panel for cytokine detection contained: CD8-PE-texas-Red, CD45.1-FITC, CD45.2-APC, TNFa-Pacific blue, IFNg-PerCP-Cy5.5, IL-2-PE.

Assay [3] relates to human CD4 T cells. Put plainly: Human cord blood PBMC culture, CD62L in CD3-pos/CD8-neg (CD4) T cells. The assay is classed as cell-based. To be noted: 25 μM; day 11; vs DMSO. How it is done:
as §1
CD62L expression in human CD4 T cells was also analyzed. Human cord blood PBMCs were cultured and activated as described before, in the presence of 25p M UK5099 or DMSO control. About 98% of the cells in culture on day 11 are CD3-positive. Since CD3 is exclusively expressed on CD4 and CD8 T cells, we can deduct that all CD3-positive, CD8-negative must be CD4 T cells. When analyzing the CD3-pos/CD8-neg population we observed that CD62L expression is increased upon MPCi treatment (FIG. 5D).

For assay [4], the system named is adult human T cells. Put plainly: Mitochondrial staining (MitoGreen, TMRM) of adult human T cells. The assay is classed as cell-based. As to conditions: day 9; 25 μM; fold change compared to DMSO. Here is the method:
FIG. 7: MPC inhibition during the activation and culture of adult human T cells induces a memory phenotype. (A) Experimental design. PBMCs were isolated from adult healthy volunteers and activated with anti-CD3/CD28 beads in the presence of DMSO or UK5099 (25 μM). Beads were removed at day 5 and T cell phenotype was analysed at day 9. (B) Percentage of CD8 T cells expressing the memory marker CD62L. (C) The mean fluorescent intensity of CD62L in the respective positive population. (D) Percentage of CD8 T cells expressing markers that allows their identification as stem cell memory T cells (TSCM). (E-F) Mitochonrial mass (identified by MitoGreen staining, E) and mitochondrial membrane potential (TMRM, F), measured by flow cytometry and expressed as fold change as compared to DMSO. (G) Mitochondrial membrane potential normalized for the mitochondrial mass, expressed as the ratio of […], fold change as compared to DMSO. Pooled data from 2 independant experiments. ns: non-significant, *p<0.05, **[…], ***p<0.001. Data represents mean±s.e.m.
Heparinised blood was diluted with PBS and pipetted on top of Ficoll-paque (LymphoPrep). After centrifugation at 1800 rpm for 20 minutes at room temperature, the layer of cells at the intersection, containing the PBMCs was removed, washed and resuspended at 5×10^5 cells/ml of RPMI medium containing 8% human serum (AB serum), antibiotics, 2 mM L-Glutamine, 1% non-essential amino acids, 1 mM sodium pyruvate and 50 μM β-mercaptoethanol (all Gibco). Cells were activated with Human T-activator CD3/CD28 Dynabeads at a 1 bead/cell ratio with 150 IU/ml human recombinant IL2 and DMSO or 25 μM UK5099. Throughout the culture, cells were regularly split when necessary and beads were removed at day 5. At day 9, a fraction of the cells was stained with antibodies for flow cytometry analysis or for mitochondrial analysis.
2×10^5 cells were stained with 25 nM TMRM and 50 nM MitoGreen (Molecular Probes, Invitrogen) for 30 minutes in RPMI with 5% FCS at 37° C. […]

Entries after “also recorded” stand apart in the source; their conditions may differ.

With `N#CC(=Cc1cn(-c2ccccc2)c2ccccc12)C(=O)O` [UK5099, 2-cyano-3-(1-phenyl-1H-indol-3-yl)-2-propenoic acid], the “CD62L expression in human cord blood CD8 T cells” value in assay [1] is on record as “significant increase”. Further, the “proportion of central memory CD8+ T cells in the spleen” value in assay [2] (CD44 and CD62L double positive of transferred cells) is reported as “increased”. Further, in assay [2] (mice that received 10^5 pre-treated OT1 CD8+ T cells, compared to DMSO, listed as MPCi), the B16 tumor growth entry is listed as “enhanced anti-tumoral activity; also recorded: strongly reduced”. Further, the “expression of PD-1 in T cells infiltrating the tumor” value in assay [2] (transferred CD8+CD45.1+ population in the tumor, vs DMSO) is on record as “significantly decreased”. In addition, in assay [2] (tumor single cell suspension restimulated with SIINFEKL for 4 h), the “cells double positive for IFNγ and TNF upon restimulation” value is recorded as “higher proportion”. Moreover, the “percentage of transferred cells out of total CD8+ T cells in spleen and tumor” value in assay [2] (upon dissection, data not shown) was “not strikingly different”. For the same molecule, the “CD62L expression in human CD3-pos/CD8-neg (CD4) T cells” value in assay [3] is “increased”. In addition, in assay [4], the “mitochondrial membrane potential (TMRM)” value was “significantly increased”, the “mitochondrial membrane potential normalized for the mitochondrial mass” value is reported as “more polarised mitochondria” and the “total mitochondrial mass (MitoGreen)” value is “did not impact”.
